Experimental data reported in patent publication US6358885B1, “Substituted phenylheterocyclic herbicides” (Mississippi State University, priority 1992, dated 2002).

Tests used:
Assay in all cases: Test B preemergence/postemergence greenhouse plant response rating 0 to 10
[1] = tested on: wild oat; format: in vivo, Avena fatua; settings: for Plant response rating, Wild oat: 0 to 10 scale
Method in brief: (§1)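 Postemergence treatment of plants two to eighteen cm tall ran alongside preemergence treatment of planted seed, each using compound in a non-phytotoxic solvent.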

[2] = tested on: rape; format: in vivo, Brassica napus; settings: for Plant response rating, Rape: 0 to 10 scale
Method in brief: as §1

[3] = tested on: velvetleaf; format: in vivo, Abutilon theophrasti; settings: for Plant response rating, Velvetleaf: 0 to 10 scale
Method in brief: as §1

[4] = tested on: chickweed; format: in vivo, Stellaria media; settings: for Plant response rating, Chickweed: 0 to 10 scale
Method in brief: as §1

[5] = tested on: wild buckwheat; format: in vivo, Polygonum convolvulus; settings: for Plant response rating, Wild buckwheat: 0 to 10 scale
Method in brief: as §1

[6] = tested on: soybean; format: in vivo, Glycine max; settings: for Plant response rating, Soybean: 0 to 10 scale
Method in brief: as §1

[7] = tested on: rice; format: in vivo, Oryza sativa; settings: for Plant response rating, Rice: 0 to 10 scale
Method in brief: as §1

[8] = tested on: sugar beet; format: in vivo, Beta vulgaris; settings: for Plant response rating, Sugar beet: 0 to 10 scale
Method in brief: as §1

[9] = tested on: sorghum; format: in vivo, Sorghum bicolor; settings: for Plant response rating, Sorghum: 0 to 10 scale
Method in brief: as §1

[10] = tested on: cotton; format: in vivo, Gossypium hirsutum; settings: for Plant response rating, Cotton: 0 to 10 scale
Method in brief: as §1

[11] = tested on: cocklebur; format: in vivo, Xanthium pensylvanicum; settings: for Plant response rating, Cocklebur: 0 to 10 scale
Method in brief: as §1

[12] = tested on: giant foxtail; format: in vivo, Setaria faberii; settings: for Plant response rating, Giant foxtail: 0 to 10 scale
Method in brief: as §1

[13] = tested on: bedstraw; format: in vivo, Galium aparine; settings: for Plant response rating, Bedstraw: 0 to 10 scale
Method in brief: as §1

[14] = tested on: lambsquarters; format: in vivo, Chenopodium album; settings: for Plant response rating, Lambsquarter: 0 to 10 scale
Method in brief: as §1

[15] = tested on: morningglory; format: in vivo, Ipomoea hederacea; settings: for Plant response rating, Morningglory: 0 to 10 scale
Method in brief: as §1

[16] = tested on: barley; format: in vivo, Hordeum vulgare; settings: for Plant response rating, Barley: 0 to 10 scale
Method in brief: as §1

[17] = tested on: blackgrass; format: in vivo, Alopecurus myosuroides; settings: for Plant response rating, Blackgrass: 0 to 10 scale
Method in brief: as §1

[18] = tested on: crabgrass; format: in vivo, Digitaria spp.; settings: for Plant response rating, Crabgrass: 0 to 10 scale
Method in brief: as §1

[19] = tested on: corn; format: in vivo, Zea mays; settings: for Plant response rating, Corn: 0 to 10 scale
Method in brief: as §1

[20] = tested on: barnyardgrass; format: in vivo, Echinochloa crus-galli; settings: for Plant response rating, Barnyardgrass: 0 to 10 scale
Method in brief: as §1

[21] = tested on: cheatgrass; format: in vivo, Bromus secalinus; settings: for Plant response rating, Cheatgrass: 0 to 10 scale
Method in brief: as §1

[22] = tested on: wheat; format: in vivo, Triticum aestivum; settings: for Plant response rating, Wheat: 0 to 10 scale
Method in brief: as §1

[23] = tested on: purple nutsedge; format: in vivo, Cyperus rotundus; settings: for Plant response rating, Nutsedge: 0 to 10 scale
Method in brief: as §1

Structure (SMILES): CC(C)(C)C(=O)COc1cc(-c2nn3c(c2Cl)CCCC3)c(Cl)cc1Cl [Compound 77]
- Plant response rating, Wild oat ([1]; POSTEMERGENCE, Rate 50 g/ha): 1
- Plant response rating, Wild oat ([1]; PREEMERGENCE, Rate 50 g/ha): 0
- Plant response rating (0 to 10 scale), Wild oat ([1]; PREEMERGENCE, Rate 200 g/ha): 0
- Plant response rating, Wild oat ([1]; Rate 200 g/ha, POSTEMERGENCE): 3
- Plant response rating, Rape ([2]; POSTEMERGENCE, Rate 50 g/ha): 6
- Plant response rating, Rape ([2]; PREEMERGENCE, Rate 50 g/ha): 0
- Plant response rating (0 to 10 scale), Rape ([2]; PREEMERGENCE, Rate 200 g/ha): 6
- Plant response rating, Rape ([2]; Rate 200 g/ha, POSTEMERGENCE): 7
- Plant response rating, Velvetleaf ([3]; POSTEMERGENCE, Rate 50 g/ha): 10
- Plant response rating, Velvetleaf ([3]; PREEMERGENCE, Rate 50 g/ha): 3
- Plant response rating (0 to 10 scale), Velvetleaf ([3]; PREEMERGENCE, Rate 200 g/ha): 7
- Plant response rating, Velvetleaf ([3]; Rate 200 g/ha, POSTEMERGENCE): 10
- Plant response rating, Chickweed ([4]; POSTEMERGENCE, Rate 50 g/ha): 2
- Plant response rating, Chickweed ([4]; PREEMERGENCE, Rate 50 g/ha): 0
- Plant response rating (0 to 10 scale), Chickweed ([4]; PREEMERGENCE, Rate 200 g/ha): 1
- Plant response rating, Chickweed ([4]; Rate 200 g/ha, POSTEMERGENCE): 3
- Plant response rating, Wild buckwheat ([5]; POSTEMERGENCE, Rate 50 g/ha): 10
- Plant response rating, Wild buckwheat ([5]; PREEMERGENCE, Rate 50 g/ha): 8
- Plant response rating (0 to 10 scale), Wild buckwheat ([5]; PREEMERGENCE, Rate 200 g/ha): 9
- Plant response rating, Wild buckwheat ([5]; Rate 200 g/ha, POSTEMERGENCE): 10
- Plant response rating, Soybean ([6]; POSTEMERGENCE, Rate 50 g/ha): 5
- Plant response rating, Soybean ([6]; PREEMERGENCE, Rate 50 g/ha): 0
- Plant response rating (0 to 10 scale), Soybean ([6]; PREEMERGENCE, Rate 200 g/ha): 0
- Plant response rating, Soybean ([6]; Rate 200 g/ha, POSTEMERGENCE): 7
- Plant response rating, Rice ([7]; POSTEMERGENCE, Rate 50 g/ha): 4
- Plant response rating, Rice ([7]; PREEMERGENCE, Rate 50 g/ha): 0
- Plant response rating (0 to 10 scale), Rice ([7]; PREEMERGENCE, Rate 200 g/ha): 0
- Plant response rating, Rice ([7]; Rate 200 g/ha, POSTEMERGENCE): 6
- Plant response rating, Sugar beet ([8]; POSTEMERGENCE, Rate 50 g/ha): 10
- Plant response rating, Sugar beet ([8]; PREEMERGENCE, Rate 50 g/ha): 3
- Plant response rating (0 to 10 scale), Sugar beet ([8]; PREEMERGENCE, Rate 200 g/ha): 3
- Plant response rating, Sugar beet ([8]; Rate 200 g/ha, POSTEMERGENCE): 10
- Plant response rating, Sorghum ([9]; POSTEMERGENCE, Rate 50 g/ha): 5
- Plant response rating, Sorghum ([9]; PREEMERGENCE, Rate 50 g/ha): 0
- Plant response rating (0 to 10 scale), Sorghum ([9]; PREEMERGENCE, Rate 200 g/ha): 0
- Plant response rating, Sorghum ([9]; Rate 200 g/ha, POSTEMERGENCE): 5
- Plant response rating, Cotton ([10]; POSTEMERGENCE, Rate 50 g/ha): 10
- Plant response rating, Cotton ([10]; PREEMERGENCE, Rate 50 g/ha): 0
- Plant response rating (0 to 10 scale), Cotton ([10]; PREEMERGENCE, Rate 200 g/ha): 0
- Plant response rating, Cotton ([10]; Rate 200 g/ha, POSTEMERGENCE): 10
- Plant response rating, Cocklebur ([11]; POSTEMERGENCE, Rate 50 g/ha): 7
- Plant response rating, Cocklebur ([11]; PREEMERGENCE, Rate 50 g/ha): 0
- Plant response rating (0 to 10 scale), Cocklebur ([11]; PREEMERGENCE, Rate 200 g/ha): 1
- Plant response rating, Cocklebur ([11]; Rate 200 g/ha, POSTEMERGENCE): 9
- Plant response rating, Giant foxtail ([12]; POSTEMERGENCE, Rate 50 g/ha): 5
- Plant response rating, Giant foxtail ([12]; PREEMERGENCE, Rate 50 g/ha): 2
- Plant response rating (0 to 10 scale), Giant foxtail ([12]; PREEMERGENCE, Rate 200 g/ha): 2
- Plant response rating, Giant foxtail ([12]; Rate 200 g/ha, POSTEMERGENCE): 6
- Plant response rating, Bedstraw ([13]; POSTEMERGENCE, Rate 50 g/ha): 4
- Plant response rating, Bedstraw ([13]; PREEMERGENCE, Rate 50 g/ha): 3
- Plant response rating (0 to 10 scale), Bedstraw ([13]; PREEMERGENCE, Rate 200 g/ha): 10
- Plant response rating, Bedstraw ([13]; Rate 200 g/ha, POSTEMERGENCE): 5
- Plant response rating, Lambsquarter ([14]; POSTEMERGENCE, Rate 50 g/ha): 10
- Plant response rating, Lambsquarter ([14]; PREEMERGENCE, Rate 50 g/ha): 10
- Plant response rating (0 to 10 scale), Lambsquarter ([14]; PREEMERGENCE, Rate 200 g/ha): 10
- Plant response rating, Lambsquarter ([14]; Rate 200 g/ha, POSTEMERGENCE): 10
- Plant response rating, Morningglory ([15]; POSTEMERGENCE, Rate 50 g/ha): 8
- Plant response rating, Morningglory ([15]; PREEMERGENCE, Rate 50 g/ha): 0
- Plant response rating (0 to 10 scale), Morningglory ([15]; PREEMERGENCE, Rate 200 g/ha): 0
- Plant response rating, Morningglory ([15]; Rate 200 g/ha, POSTEMERGENCE): 9
- Plant response rating, Barley ([16]; POSTEMERGENCE, Rate 50 g/ha): 2
- Plant response rating, Barley ([16]; PREEMERGENCE, Rate 50 g/ha): 0
- Plant response rating (0 to 10 scale), Barley ([16]; PREEMERGENCE, Rate 200 g/ha): 0
- Plant response rating, Barley ([16]; Rate 200 g/ha, POSTEMERGENCE): 3
- Plant response rating, Blackgrass ([17]; POSTEMERGENCE, Rate 50 g/ha): 2
- Plant response rating, Blackgrass ([17]; PREEMERGENCE, Rate 50 g/ha): 2
- Plant response rating (0 to 10 scale), Blackgrass ([17]; PREEMERGENCE, Rate 200 g/ha): 3
- Plant response rating, Blackgrass ([17]; Rate 200 g/ha, POSTEMERGENCE): 3
- Plant response rating, Crabgrass ([18]; POSTEMERGENCE, Rate 50 g/ha): 5
- Plant response rating, Crabgrass ([18]; PREEMERGENCE, Rate 50 g/ha): 2
- Plant response rating (0 to 10 scale), Crabgrass ([18]; PREEMERGENCE, Rate 200 g/ha): 3
- Plant response rating, Crabgrass ([18]; Rate 200 g/ha, POSTEMERGENCE): 6
- Plant response rating, Corn ([19]; POSTEMERGENCE, Rate 50 g/ha): 3
- Plant response rating, Corn ([19]; PREEMERGENCE, Rate 50 g/ha): 0
- Plant response rating (0 to 10 scale), Corn ([19]; PREEMERGENCE, Rate 200 g/ha): 0
- Plant response rating, Corn ([19]; Rate 200 g/ha, POSTEMERGENCE): 3
- Plant response rating, Barnyardgrass ([20]; POSTEMERGENCE, Rate 50 g/ha): 4
- Plant response rating, Barnyardgrass ([20]; PREEMERGENCE, Rate 50 g/ha): 0
- Plant response rating (0 to 10 scale), Barnyardgrass ([20]; PREEMERGENCE, Rate 200 g/ha): 3
- Plant response rating, Barnyardgrass ([20]; Rate 200 g/ha, POSTEMERGENCE): 8
- Plant response rating, Cheatgrass ([21]; POSTEMERGENCE, Rate 50 g/ha): 2
- Plant response rating, Cheatgrass ([21]; PREEMERGENCE, Rate 50 g/ha): 3
- Plant response rating (0 to 10 scale), Cheatgrass ([21]; PREEMERGENCE, Rate 200 g/ha): 5
- Plant response rating, Cheatgrass ([21]; Rate 200 g/ha, POSTEMERGENCE): 3
- Plant response rating, Wheat ([22]; POSTEMERGENCE, Rate 50 g/ha): 2
- Plant response rating, Wheat ([22]; PREEMERGENCE, Rate 50 g/ha): 0
- Plant response rating (0 to 10 scale), Wheat ([22]; PREEMERGENCE, Rate 200 g/ha): 0
- Plant response rating, Wheat ([22]; Rate 200 g/ha, POSTEMERGENCE): 5
- Plant response rating, Nutsedge ([23]; POSTEMERGENCE, Rate 50 g/ha): 2
- Plant response rating, Nutsedge ([23]; PREEMERGENCE, Rate 50 g/ha): 0
- Plant response rating (0 to 10 scale), Nutsedge ([23]; PREEMERGENCE, Rate 200 g/ha): 0
- Plant response rating, Nutsedge ([23]; Rate 200 g/ha, POSTEMERGENCE): 2
